Measurements from patent publication EP0059645A1, “Method and kit for identification of beta-lactamases” (NATIONAL RESEARCH DEVELOPMENT CORPORATION, priority 1981, dated 1982).
Marks after values point to notes of the source that are not given here.

Key:
Experiment in all cases: Competitive assay with nitrocefin (RSAI)
HMS-1 = format: biochemical, E. coli 1946
K17 = format: biochemical, Klebsiella 17
Source text: (§1) It is convenient to express the results in terms of a Relative Substrate Affinity Index (RSAI) value.
(§2) RSAI = Concentration of competing substrate which gives 50% inhibition of ring-opening hydrolysis of the chromogenic substrate
(§3) Concentration of chromogenic substrate in the assay A high RSAI value therefore indicates a low affinity of the beta-lactamase for that competing substrate, and therefore predicts resistance of a beta-lactam competing substrate to hydrolysis by the beta-lactamase. Low RSAI values, in contrast, predict sensitivity to hydrolysis by a beta-lactamase.
(§4) Beta-lactam antibiotics which bind to the TEM-2 enzyme compete with nitrocefin in the assay. […] . This concentration of ampicillin is a direct estimate of the relative affinity of the TEM-2 enzyme for ampicillin. […] . The RSAI value was therefore 1.3.

[1] = target: Chromosomal, hyper-induced beta-lactamase enzyme (Escherichia coli, UniProt P00811); format: biochemical, E. coli SNU35; set-up: Normally, therefore, the beta-lactamase has to be extracted from the cells for the purpose of the present invention; endogenous in cells; host or cells: E. coli SNU 35 (artificially produced strain)
PSE-2 = PSE-2 (Pseudomonas aeruginosa, UniProt P14489); format: biochemical, Ps.aerug. 1973E; set-up: Normally, therefore, the beta-lactamase has to be extracted from the cells for the purpose of the present invention; endogenous in cells
PSE-1 = PSE-1 (Pseudomonas aeruginosa, UniProt Q03170); format: biochemical, Ps.aerug. 1937E; set-up: Normally, therefore, the beta-lactamase has to be extracted from the cells for the purpose of the present invention; endogenous in cells
[2] = target: T1, Chromosomal, constitutive beta-lactamase enzyme (Enterobacter cloacae, UniProt P05364); format: biochemical, E. cloacae
T1 construct: Normally, therefore, the beta-lactamase has to be extracted from the cells for the purpose of the present invention; endogenous in cells

TEM-2 = TEM-2 (Escherichia coli, UniProt P62593, Q37K); format: biochemical, E. coli 1725E
Source text: as §1, §2, §3, §4

OXA-3 = OXA-3 (Pseudomonas aeruginosa, UniProt Q51429); format: biochemical, E. coli R57B; set-up: Normally, therefore, the beta-lactamase has to be extracted from the cells for the purpose of the present invention; endogenous in cells
OXA-2 = OXA-2 (Escherichia coli, UniProt P0A1V9); format: biochemical, E. coli R46; set-up: the beta-lactamase has to be extracted from the cells for the purpose of the present invention; made in house; host or cells: E. coli carrying R46 according to the earlier reading (crude cell extract)
K1073 = format: biochemical, Klebsiella 1073
Source text: as §1, §2, §3, §4

TEM-1 = TEM-1 (Escherichia coli, UniProt P62593); format: biochemical, E. coli 2136E; set-up: the beta-lactamase has to be extracted from the cells for the purpose of the present invention; made in house; host or cells: E. coli 2136E (plasmid-bearing strain; crude cell extract)
[3] = target: T2, Chromosomal, induced beta-lactamase enzyme (Pseudomonas aeruginosa, UniProt P24735); format: biochemical, Ps.aerug. 1937E + ampicillin
T2 construct: Normally, therefore, the beta-lactamase has to be extracted from the cells for the purpose of the present invention; endogenous in cells; host or cells: Pseudomonas aeruginosa 1937E grown with ampicillin

K10317 = format: biochemical, K.aerog. 10317
Source text: as §1, §2, §3, §4

PSE-3 = format: biochemical, Ps.aerug. 1920E
SHV-1 = SHV-1 (Escherichia coli, UniProt P0AD63); format: biochemical, E. coli 2008E; set-up: the beta-lactamase has to be extracted from the cells for the purpose of the present invention; made in house; host or cells: E. coli 2008E (crude cell extract)
PSE-4 = PSE-4 (Pseudomonas aeruginosa, UniProt P16897); format: biochemical, Ps.aerug. 1559E; set-up: Normally, therefore, the beta-lactamase has to be extracted from the cells for the purpose of the present invention; endogenous in cells
OXA-1 = OXA-1 (Escherichia coli, UniProt P13661); format: biochemical, E. coli 1527E; set-up: the beta-lactamase has to be extracted from the cells for the purpose of the present invention; made in house; host or cells: E. coli 1527E according to the earlier reading (crude cell extract)

SMILES | RSAI (HMS-1) | RSAI (K17) | RSAI [1] | RSAI (PSE-2) | RSAI (PSE-1) | RSAI [2] | RSAI (TEM-2) | RSAI (OXA-3) | RSAI (OXA-2) | RSAI (K1073) | RSAI (TEM-1) | RSAI [3] | RSAI (K10317) | RSAI (PSE-3) | RSAI (SHV-1) | RSAI (PSE-4) | RSAI (OXA-1) | nature of the binding to the enzyme (PSE-1) | nature of the binding to the enzyme (PSE-4)
Cc1nnc(SCC2=C(C(=O)O)N3C(=O)[C@@H](NC(=O)Cn4cnnn4)[C@H]3SC2)s1 [Cephalo-zolin, Cephalozolin] | 0.8 | 1 | 46 | 1.4 | 2 | 17 | 48 | 3.4 | 3.4 | 16 | 30 | 15 | 30 | 3.2 | 15 | 2.6 | 10 | – | –
CC1=C(C(=O)O)N2C(=O)[C@@H](NC(=O)[C@H](N)C3=CCC=CC3)[C@H]2SC1 [Cephra-dine, cephradine] | 25 | 10.4 | 0.12 | 4.2 | 46 | 1.8 | 50 | 100 | 86 | 25 | 35 | 1 | 18 | 3.6 | 15 | 80 | 420 | – | –
O=C(O)[C@H]1/C(=C/CO)O[C@@H]2CC(=O)N21 [Clavulanic acid] | 0.006* | 0.004* | 4 | 0.4 | 0.0001 | 50 | 0.002* | 1.6* | 0.9* | 0.004* | 0.003* | >40 | 0.004* | 0.014 | 0.006* | 0.004* | 0.02* | reversibly | irreversibly
C[C@@H](O)[C@H]1C(=O)N2C(C(=O)O)=C(SCCN=CN)C[C@H]12 [MK 0787 (N-Formimidoyl-thienamycin), N-Formimidoyl-thienamycin] | 1.2 | 2.1 | 2 | 0.08 | 19.4 | 0.03 | 0.1 | 0.0016* | 0.005* | 1.9 | 0.1 | 0.015 | 0.24 | 0.5 | 1.2 | 15 | 0.6* | – | –
CC1(C)S[C@@H]2[C@H](NC(=O)[C@H](NC(=O)N3CCN(S(C)(=O)=O)C3=O)c3ccccc3)C(=O)N2[C@H]1C(=O)O [Mezlo-cillin, Mezlocillin] | 0.9 | 1.3 | 0.3 | 4.75 | 1.2 | 0.4 | 6.3 | 19.2 | 19.4 | 5.5 | 3.6 | 0.26 | 16.4 | 0.8 | 3 | 0.9 | 1.9 | – | –
CC1(C)S[C@@H]2[C@H](NC(=O)Cc3ccccc3)C(=O)N2[C@H]1C(=O)O [Peni-cillin G, Penicillin G] | 0.5 | 1.2 | 0.18 | 0.2 | 0.6 | 0.08 | 1 | 0.4 | 0.6 | 2 | 3 | 0.13 | 2.2 | 0.3 | 1 | 0.48 | 0.2 | – | –
CO/N=C(\C(=O)N[C@@H]1C(=O)N2C(C(=O)O)=C(CSc3nc(=O)c(=O)[nH]n3C)CS[C@H]12)c1csc(N)n1 [RO-13 9904] | 14 | 4 | 0.01 | 0.76 | 14 | 0.0003* | 600 | 3 | 10 | 116 | 400 | 38 | 74 | 36 | 160 | 42 | 0.9 | – | –
CC1(C)S[C@@H]2[C@H](NC(=O)[C@H](C(=O)O)c3ccsc3)C(=O)N2[C@H]1C(=O)O [Ticar-cillin, ticarcillin] | 0.175 | 0.25 | 0.001 | 2.4 | 0.63 | 0.0008* | 0.49 | 12 | 26 | 0.485 | 0.035 | 0.0065 | 0.48 | 2 | 0.23 | 0.65 | 0.65 | – | –
